Reference: patent US7148227B2, “Fungicidal triazolopyrimidines, methods for producing the same, use thereof for combating harmful fungi and agents containing said substances” (BASF Aktiengesellschaft, priority 2002, dated 2006)

| melting point [°C] | Compound |
| --- | --- |
| 207 | N#Cc1ccc(-c2c(Cl)nc3ncnn3c2NC2CCCC2)cc1 [I-3] |
| 161 | CSc1cc(F)c(-c2c(Cl)nc3ncnn3c2NCC(F)(F)F)cc1F [I-8] |
